Experimental data published in patent US3960833A, “Butirosin A 3",5"-O-isopropylidene derivatives” (Bristol-Myers Company, priority 1975, dated 1976).
In brackets after ≈: the same amount, converted by molar mass.

Legend:
Format in all cases: cell-based
E. coli ML1630 = assay: MIC by Steers agar-dilution method on Mueller-Hinton medium; conditions: Escherichia coli; E. coli ML1630; Mueller-Hinton medium; read-out: MIC
Source text: (§1) Illustrated below is a table showing the minimal inhibitory concentrations (MIC's) of butirosin A, 4'-deoxybutirosin A and compound 11 (BB-K186) against a variety of gram-positive and gram-negativebacteria as obtained by the Steers agar-dilution method on Mueller-Hinton medium.

E. coli A20895 = assay: as above; conditions: Escherichia coli; E. coli A20895; Mueller-Hinton medium; read-out: MIC
Source text: as §1

Ps. aeruginosa No. 130 = assay: as above; conditions: Pseudomonas aeruginosa; Ps. aeruginosa No. 130; Mueller-Hinton medium; read-out: MIC
Source text: as §1

K. pneumoniae D11 = assay: as above; conditions: Klebsiella pneumoniae; K. pneumoniae D11; Mueller-Hinton medium; read-out: MIC
Source text: as §1

E. coli NIHJ = assay: as above; conditions: Escherichia coli; E. coli NIHJ; Mueller-Hinton medium; read-out: MIC
Source text: as §1

Ps. aeruginosa A9930 = assay: as above; conditions: Pseudomonas aeruginosa; Ps. aeruginosa A9930; Mueller-Hinton medium; read-out: MIC
Source text: as §1

S. aureus D137 = assay: as above; conditions: Staphylococcus aureus; S. aureus D137; Mueller-Hinton medium; read-out: MIC
Source text: as §1

Ent. cloacae A20364 = assay: as above; conditions: Enterobacter cloacae; Ent. cloacae A20364; Mueller-Hinton medium; read-out: MIC
Source text: as §1

S. aureus D193 = assay: as above; conditions: Staphylococcus aureus; S. aureus D193; Mueller-Hinton medium; read-out: MIC
Source text: as §1

Ser. marcescens A21247 = assay: as above; conditions: Serratia marcescens; Ser. marcescens A21247; Mueller-Hinton medium; read-out: MIC
Source text: as §1

Ps. aeruginosa A20635 = assay: as above; conditions: Pseudomonas aeruginosa; Ps. aeruginosa A20635; Mueller-Hinton medium; read-out: MIC
Source text: as §1

E. coli JR35/C600 = assay: as above; conditions: Escherichia coli
Source text: as §1

E. coli A20107 = assay: as above; conditions: Escherichia coli; E. coli A20107; Mueller-Hinton medium; read-out: MIC
Source text: as §1

Ps. aeruginosa A20896 = assay: as above; conditions: Pseudomonas aeruginosa; Ps. aeruginosa A20896; Mueller-Hinton medium; read-out: MIC
Source text: as §1

E. coli R5 = assay: as above; conditions: Escherichia coli; E. coli R5; Mueller-Hinton medium; read-out: MIC
Source text: as §1

E. coli NR79/W677 = assay: as above; conditions: Escherichia coli
Source text: as §1

Ser. marcescens A20019 = assay: as above; conditions: Serratia marcescens; Ser. marcescens A20019; Mueller-Hinton medium; read-out: MIC
Source text: as §1

E. coli A20732 = assay: as above; conditions: Escherichia coli; E. coli A20732; Mueller-Hinton medium; read-out: MIC
Source text: as §1

Ps. aeruginosa A20601 = assay: as above; conditions: Pseudomonas aeruginosa; Ps. aeruginosa A20601; Mueller-Hinton medium; read-out: MIC
Source text: as §1

E. coli PO1495 = assay: as above; conditions: Escherichia coli
Source text: as §1

Pseudomonas sp. A20621 = assay: as above; conditions: Pseudomonas sp. A20621; Mueller-Hinton medium; read-out: MIC
Source text: as §1

S. aureus A20239 = assay: as above; conditions: Staphylococcus aureus; S. aureus A20239; Mueller-Hinton medium; read-out: MIC
Source text: as §1

Pr. mirabilis A9554 = assay: as above; conditions: Proteus mirabilis; Pr. mirabilis A9554; Mueller-Hinton medium; read-out: MIC
Source text: as §1

E. coli JR66/W677 = assay: as above; conditions: Escherichia coli
Source text: as §1

S. aureus Smith = assay: as above; conditions: Staphylococcus aureus; S. aureus Smith; Mueller-Hinton medium; read-out: MIC
Source text: as §1

Pr. vulgaris A9436 = assay: as above; conditions: Proteus vulgaris; Pr. vulgaris A9436; Mueller-Hinton medium; read-out: MIC
Source text: as §1

Pr. morganii A20031 = assay: as above; conditions: Morganella morganii; Pr. morganii A20031; Mueller-Hinton medium; read-out: MIC
Source text: as §1

K. pneumoniae 22-3038 = assay: as above; conditions: Klebsiella pneumoniae, 223038; K. pneumoniae 22-3038; Mueller-Hinton medium; read-out: MIC
Source text: as §1

Prov. stuartii A20894 = assay: as above; conditions: Providencia stuartii; Prov. stuartii A20894; Mueller-Hinton medium; read-out: MIC
Source text: as §1

Ps. aeruginosa GN-315 = assay: as above; conditions: Pseudomonas aeruginosa, GN315; Ps. aeruginosa GN-315; Mueller-Hinton medium; read-out: MIC
Source text: as §1

S. aureus D133 = assay: as above; conditions: Staphylococcus aureus; S. aureus D133; Mueller-Hinton medium; read-out: MIC
Source text: as §1

Ent. cloacae A21006 = assay: as above; conditions: Enterobacter cloacae; Ent. cloacae A21006; Mueller-Hinton medium; read-out: MIC
Source text: as §1

Pseudomonas aeruginosa = assay: Antibacterial activity against Pseudomonas aeruginosa (MIC, Steers agar-dilution method); conditions: in words
Source text: as §1

[1] = tested on: a variety of gram-positive and gram-negative bacteria; assay: Antibacterial activity overall (MIC, Steers agar-dilution method); conditions: in words
Source text: as §1

NCC[C@H](O)C(=O)N[C@@H]1C[C@H](N)[C@@H](O[C@H]2O[C@H](CN)[C@@H](O)C[C@H]2N)[C@H](O[C@@H]2O[C@H](CO)[C@H](O)[C@H]2O)[C@H]1O [Compound 11, 3'-deoxybutirosin A]
MIC (E. coli ML1630): 3.1 µg/mL (≈ 5.75 µM)
MIC (E. coli A20895): 3.1 µg/mL (≈ 5.75 µM)
MIC (Ps. aeruginosa No. 130): 12.5 µg/mL (≈ 23.2 µM)
MIC (K. pneumoniae D11): 0.8 µg/mL (≈ 1.48 µM)
MIC (E. coli NIHJ): 1.6 µg/mL (≈ 2.97 µM)
MIC (Ps. aeruginosa A9930): 0.8 µg/mL (≈ 1.48 µM)
MIC (S. aureus D137): 12.5 µg/mL (≈ 23.2 µM)
MIC (Ent. cloacae A20364): 1.6 µg/mL (≈ 2.97 µM)
MIC (S. aureus D193): 1.6 µg/mL (≈ 2.97 µM)
MIC (Ser. marcescens A21247): 3.1 µg/mL (≈ 5.75 µM)
MIC (Ps. aeruginosa A20635): 25 µg/mL (≈ 46.3 µM)
MIC (E. coli JR35/C600): 0.8 µg/mL (≈ 1.48 µM)
MIC (E. coli A20107): 3.1 µg/mL (≈ 5.75 µM)
MIC (Ps. aeruginosa A20896): 50 µg/mL (≈ 92.7 µM)
MIC (E. coli R5): 3.1 µg/mL (≈ 5.75 µM)
MIC (E. coli NR79/W677): > 100 µg/mL
MIC (Ser. marcescens A20019): 6.3 µg/mL (≈ 11.7 µM)
MIC (E. coli A20732): 1.6 µg/mL (≈ 2.97 µM)
MIC (Ps. aeruginosa A20601): 12.5 µg/mL (≈ 23.2 µM)
MIC (E. coli PO1495): 1.6 µg/mL (≈ 2.97 µM)
MIC (Pseudomonas sp. A20621): 100 µg/mL (≈ 185 µM)
MIC (S. aureus A20239): 3.1 µg/mL (≈ 5.75 µM)
MIC (Pr. mirabilis A9554): 1.6 µg/mL (≈ 2.97 µM)
MIC (E. coli JR66/W677): 3.1 µg/mL (≈ 5.75 µM)
MIC (S. aureus Smith): 0.8 µg/mL (≈ 1.48 µM)
MIC (Pr. vulgaris A9436): 0.4 µg/mL (≈ 0.741 µM)
MIC (Pr. morganii A20031): 3.1 µg/mL (≈ 5.75 µM)
MIC (K. pneumoniae 22-3038): 3.1 µg/mL (≈ 5.75 µM)
MIC (Prov. stuartii A20894): 25 µg/mL (≈ 46.3 µM)
MIC (Ps. aeruginosa GN-315): > 100 µg/mL
MIC (S. aureus D133): 3.1 µg/mL (≈ 5.75 µM)
MIC (Ent. cloacae A21006): 3.1 µg/mL (≈ 5.75 µM)
activity against Pseudomonas aeruginosa (Pseudomonas aeruginosa): particularly improved in its activity against Pseudomonas aeruginosa
antibacterial activity compared with butirosin A and 4'-deoxybutirosin A [1]: good antibacterial activity that in many respects is superior to butirosin A itself and in some respects superior to 4'-deoxybutirosin A
antibacterial activity compared with butirosin A and 4'-deoxybutirosin A ([1]; listed as compound 11): equal to or superior in most respects to butirosin A and 4'-deoxybutirosin A
